Test results as given in US10010525B2, “Methods of inducing anesthesia” (The Regents of the University of California, priority 2012, dated 2018).
Entries after “also recorded” stand apart in the source; their conditions may differ.

Key:
[1] = test system: 3-transmembrane (TM3) and 4-transmembrane (TM4) receptors; settings: grouped by calculated molar solubility in unbuffered water at 25° C.; cited from earlier work
[2] = target: T1, GABAA (α1β2γ2s) receptors (UniProt P14867+P18508+P63138); test: GABAA receptor two-electrode voltage clamp in oocytes at saturated drug concentration; format: cell-based, human α1, rat β2 and γ2s; settings: for GABAA % Direct Effect: drug response without receptor agonist; for GABAA % Direct Effect / GABAA % Agonist Effect: percent of control agonist peak, mean ±SEM, 5-6 oocytes, saturated drug; for GABAA % Agonist Effect: drug with γ-aminobutyric acid; for GABAA Drug Response: drug+agonist versus control agonist peak
T1 construct: expressed in transfected cells; host or cells: Xenopus laevis oocytes (intranuclear plasmid injection, α1:β2:γ2 = 1:1:10)
T1 sequence (P14867 28-456): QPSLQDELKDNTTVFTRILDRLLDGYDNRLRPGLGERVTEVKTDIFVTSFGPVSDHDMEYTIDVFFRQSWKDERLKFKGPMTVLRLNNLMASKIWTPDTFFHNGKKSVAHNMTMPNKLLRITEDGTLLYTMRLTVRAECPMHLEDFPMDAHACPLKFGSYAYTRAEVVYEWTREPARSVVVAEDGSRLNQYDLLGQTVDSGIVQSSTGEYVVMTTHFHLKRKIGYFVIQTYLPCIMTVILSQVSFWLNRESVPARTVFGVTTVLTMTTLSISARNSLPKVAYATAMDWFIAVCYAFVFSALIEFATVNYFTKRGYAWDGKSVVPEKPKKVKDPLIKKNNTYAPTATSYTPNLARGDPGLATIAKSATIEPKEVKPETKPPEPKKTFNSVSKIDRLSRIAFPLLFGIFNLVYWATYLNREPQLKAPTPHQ
T1 sequence (P63138 25-474 limits assumed): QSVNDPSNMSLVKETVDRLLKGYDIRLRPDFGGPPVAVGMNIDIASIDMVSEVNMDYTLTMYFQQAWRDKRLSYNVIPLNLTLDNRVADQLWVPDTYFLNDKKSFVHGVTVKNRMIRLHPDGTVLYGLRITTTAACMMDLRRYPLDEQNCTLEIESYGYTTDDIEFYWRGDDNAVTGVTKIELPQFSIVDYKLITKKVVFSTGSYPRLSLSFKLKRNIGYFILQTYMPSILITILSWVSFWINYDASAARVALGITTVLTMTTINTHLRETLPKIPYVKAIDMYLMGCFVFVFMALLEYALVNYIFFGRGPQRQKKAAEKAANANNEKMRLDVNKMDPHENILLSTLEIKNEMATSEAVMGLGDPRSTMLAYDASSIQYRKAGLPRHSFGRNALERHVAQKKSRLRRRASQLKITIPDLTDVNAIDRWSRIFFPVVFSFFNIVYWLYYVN
T1 sequence (P18508 39-466): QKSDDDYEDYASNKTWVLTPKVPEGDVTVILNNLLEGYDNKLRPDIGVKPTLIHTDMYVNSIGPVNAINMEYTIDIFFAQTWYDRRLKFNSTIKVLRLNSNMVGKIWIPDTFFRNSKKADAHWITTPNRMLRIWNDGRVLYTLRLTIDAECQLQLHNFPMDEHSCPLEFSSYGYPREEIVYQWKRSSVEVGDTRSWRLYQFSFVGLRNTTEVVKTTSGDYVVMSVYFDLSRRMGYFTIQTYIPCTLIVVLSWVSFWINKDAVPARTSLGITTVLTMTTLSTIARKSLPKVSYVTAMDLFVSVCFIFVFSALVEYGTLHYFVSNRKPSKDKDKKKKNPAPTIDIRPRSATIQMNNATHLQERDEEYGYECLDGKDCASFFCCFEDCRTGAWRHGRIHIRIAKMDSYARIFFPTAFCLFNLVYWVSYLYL
Description: (§1) GABAA (α1β2γ2s) or NMDA (NR1/NR2A) receptors were expressed in oocytes and studied using standard two-electrode voltage clamp techniques. Hydrocarbons from 14 different organic functional groups were studied at saturated concentrations, and compounds within each group differed only by the carbon number at the ω-position or within a saturated ring. An effect on GABAA or NMDA receptors was defined as a 10% or greater reversible current change from baseline that was statistically different from zero.
(§2) An ovary from tricaine-anesthetized Xenopus laevis frogs was surgically removed using a protocol approved by the Institutional Animal Care and Use Committee at the University of California, Davis. Following manual disruption of the ovarian lobule septae, the ovary was incubated in 0.2% Type I collagenase (Worthington Biochemical, Lakewood, N.J.) to defolliculate oocytes which were washed and stored in fresh and filtered modified Barth's solution composed of 88 mM NaCl, 1 mM KCl, 2.4 mM NaHCO3, 20 mM HEPES, 0.82 mM MgSO4, 0.33 mM Ca(NO3)2, 0.41 mM CaCl2, 5 mM sodium pyruvate, gentamycin, penicillin, streptomycin, and corrected to pH=7.4. All salts and antibiotics were A.C.S. grade (Fisher Scientific, Pittsburgh, Pa.).
(§3) Clones used were provided as a gift from Dr. R. A. Harris (University of Texas, Austin) and were sequenced and compared to references in the National Center for Biotechnology Information database to confirm the identity of each gene. GABAA receptors were expressed using clones for the human GABAA α1 and the rat GABAA β2 and γ2s subunits in pCIS-II vectors. […] In separate oocytes, glutamate receptors were expressed using rat NMDA NR1 clones in a pCDNA3 vector and rat NMDA NR2A clones in a Bluescript vector. RNA encoding each subunit was prepared using a commercial transcription kit (T7 mMessage mMachine, Ambion, Austin, Tex.) was mixed in a 1:1 ratio, and 1-10 ng of total RNA was injected into oocytes and studied 1-2 days later.
Oocytes were studied in a 250 μL linear-flow perfusion chamber with solutions administered by syringe pump at 1.5 ml/min with gastight glass syringes and Teflon tubing. Oocyte GABAA currents were studied using standard two-electrode voltage clamping techniques at a holding potential of […] using a 250 μL channel linear-flow perfusion chamber with solutions administered by syringe pump at 1.5 mL/min.
After FR perfusion for 5 min, oocytes were exposed to 30 sec FR-GABA followed by another 5 min FR washout; this was repeated until stable GABAA-elicited peaks were obtained. Next, FR containing a saturated solution of the study drug (Table 2)—or for gaseous study compounds a vapor pressure equal to 90% of barometric pressure with balance oxygen—was used to perfuse the oocyte chamber for 2 min followed by perfusion with a FR-GABA solution containing the identical drug concentration for 30 sec.
(§4) Modulating drug responses were calculated as the percent of the control (baseline) peak as follows: 100·ID/IB, where ID and IB were the peak currents measured during agonist+drug and agonist baseline perfusions, respectively. When present, direct receptor activation by a drug was similarly calculated as a percent of the agonist response. […] A lack of receptor response (cut-off) was defined as a<10% change from baseline current that was statistically indistinguishable from zero using a two-tailed Student t-test.

[3] = target: T2, NMDA (NR1/NR2A) receptors (Rattus norvegicus, UniProt P35439+Q00959); test: NMDA receptor two-electrode voltage clamp in oocytes at saturated drug concentration; format: cell-based; settings: for NMDA % Direct Effect: drug response without receptor agonist; for NMDA % Direct Effect / NMDA % Agonist Effect: percent of control agonist peak, mean ±SEM, 5-6 oocytes, saturated drug; for NMDA % Agonist Effect: drug with glutamate and glycine; for NMDA Drug Response: drug+agonist versus control agonist peak
T2 construct: expressed in transfected cells; host or cells: Xenopus laevis oocytes (RNA injection, 1:1)
T2 sequence (Q00959 23-1464, other chains not shown): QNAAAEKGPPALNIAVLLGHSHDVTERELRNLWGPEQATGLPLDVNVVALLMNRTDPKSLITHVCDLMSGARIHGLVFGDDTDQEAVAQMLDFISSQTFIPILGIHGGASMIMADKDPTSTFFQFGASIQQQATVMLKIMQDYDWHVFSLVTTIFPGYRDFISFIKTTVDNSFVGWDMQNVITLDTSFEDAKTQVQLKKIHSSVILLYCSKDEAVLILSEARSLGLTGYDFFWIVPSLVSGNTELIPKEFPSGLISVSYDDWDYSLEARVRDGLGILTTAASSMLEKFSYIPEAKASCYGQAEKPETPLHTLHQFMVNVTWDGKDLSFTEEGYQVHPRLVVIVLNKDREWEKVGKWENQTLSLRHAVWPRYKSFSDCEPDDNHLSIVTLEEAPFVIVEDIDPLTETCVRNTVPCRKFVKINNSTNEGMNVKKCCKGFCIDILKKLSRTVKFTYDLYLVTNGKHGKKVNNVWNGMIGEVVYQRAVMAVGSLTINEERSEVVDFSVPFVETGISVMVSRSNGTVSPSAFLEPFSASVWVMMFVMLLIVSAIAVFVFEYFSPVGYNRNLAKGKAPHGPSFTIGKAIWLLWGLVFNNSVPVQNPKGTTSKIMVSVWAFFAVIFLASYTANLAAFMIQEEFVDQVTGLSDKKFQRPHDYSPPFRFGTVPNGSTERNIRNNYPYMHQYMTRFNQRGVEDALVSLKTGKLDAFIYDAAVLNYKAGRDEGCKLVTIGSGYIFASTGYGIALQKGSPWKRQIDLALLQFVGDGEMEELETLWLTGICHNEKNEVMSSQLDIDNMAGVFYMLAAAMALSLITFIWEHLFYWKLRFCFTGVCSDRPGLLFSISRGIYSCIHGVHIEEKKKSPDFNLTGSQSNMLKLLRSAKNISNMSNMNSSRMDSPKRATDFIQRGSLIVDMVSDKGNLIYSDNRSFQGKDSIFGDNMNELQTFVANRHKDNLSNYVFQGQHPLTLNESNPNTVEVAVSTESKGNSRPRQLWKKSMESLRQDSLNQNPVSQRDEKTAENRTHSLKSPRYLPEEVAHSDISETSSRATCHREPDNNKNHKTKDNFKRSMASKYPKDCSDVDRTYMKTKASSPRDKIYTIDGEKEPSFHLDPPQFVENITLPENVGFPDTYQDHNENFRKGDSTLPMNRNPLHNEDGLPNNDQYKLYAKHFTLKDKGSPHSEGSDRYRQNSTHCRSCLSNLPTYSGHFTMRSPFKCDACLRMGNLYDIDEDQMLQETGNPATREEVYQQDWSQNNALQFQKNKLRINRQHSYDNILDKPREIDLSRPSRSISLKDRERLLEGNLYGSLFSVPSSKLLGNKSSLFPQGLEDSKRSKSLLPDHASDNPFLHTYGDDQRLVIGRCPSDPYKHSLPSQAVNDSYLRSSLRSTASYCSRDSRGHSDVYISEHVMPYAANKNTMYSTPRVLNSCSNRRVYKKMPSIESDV
Description: as §1, §2, §3
Briefly, baseline perfusion solutions were the same as for GABAA with the substitution of equimolar BaCl2 for calcium salts and the addition of 0.1 mM EGTA; this constituted barium frog Ringer's solution (BaFR). Agonist solutions for NMDA studies also contained 0.1 mM glutamate (E) and 0.01 mM glycine (G) to constitute a BaFREG solution.
The syringe pump and perfusion chamber apparatus as well as the clamp holding potential and baseline-agonist exposure protocols were identical to that described for the GABAA studies. The same test compounds, concentrations, and preparative methods were used in NMDA voltage clamp studies as in the GABAA voltage clamp studies (Table 2).
as §4

[4] = saturating aqueous concentration

CN1C(=O)CN=C(c2ccccc2)c2cc(Cl)ccc21 [diazepam]
ion channel modulation, TM3 versus TM4 receptors (FIG. 2) [1]: modulate 4-transmembrane receptors (TM4) or neither receptor type

CCCCCCOCCCCCC [dihexylether]
GABAA % Direct Effect [2]: none
GABAA % Agonist Effect [2]: 113 ± 1%
GABAA Drug Response [2]: + (potentiation (+) for drug+agonist responses greater than the control agonist peak)
NMDA % Direct Effect [3]: none
NMDA % Agonist Effect [3]: 112 ± 4%
NMDA Drug Response [3]: 0 (no response (0) for drug+agonist responses that differ by <10% from the control agonist peak)

CCCCCOCCCCC [dipentylether]
GABAA % Direct Effect [2]: none
GABAA % Agonist Effect [2]: 211 ± 9%
GABAA Drug Response [2]: + (potentiation (+) for drug+agonist responses greater than the control agonist peak)
NMDA % Direct Effect [3]: none
NMDA % Agonist Effect [3]: 97 ± 2%
NMDA Drug Response [3]: 0 (no response (0) for drug+agonist responses that differ by <10% from the control agonist peak)

CCCCCCCCCC(=O)OCC [ethyl decanoate]
GABAA % Direct Effect [2]: none
GABAA % Agonist Effect [2]: 137 ± 2%
GABAA Drug Response [2]: + (potentiation (+) for drug+agonist responses greater than the control agonist peak)
NMDA % Direct Effect [3]: none
NMDA % Agonist Effect [3]: 98 ± 1%
NMDA Drug Response [3]: 0 (no response (0) for drug+agonist responses that differ by <10% from the control agonist peak)

CCCCCCC(=O)OCC [ethyl heptanoate]
GABAA % Direct Effect [2]: none
GABAA % Agonist Effect [2]: 370 ± 34%
GABAA Drug Response [2]: + (potentiation (+) for drug+agonist responses greater than the control agonist peak)
NMDA % Direct Effect [3]: none
NMDA % Agonist Effect [3]: 78 ± 3%

CCCCCCCC(=O)OCC [ethyl octanoate]
GABAA % Direct Effect [2]: none
GABAA % Agonist Effect [2]: 285 ± 18%
GABAA Drug Response [2]: + (potentiation (+) for drug+agonist responses greater than the control agonist peak)
NMDA % Direct Effect [3]: none
NMDA % Agonist Effect [3]: 90 ± 1%

CCCCCC [hexane]
GABAA % Direct Effect [2]: none
GABAA % Agonist Effect [2]: 129 ± 5%
GABAA Drug Response [2]: + (potentiation (+) for drug+agonist responses greater than the control agonist peak)
NMDA % Direct Effect [3]: none
NMDA % Agonist Effect [3]: 100 ± 1%
NMDA Drug Response [3]: 0 (no response (0) for drug+agonist responses that differ by <10% from the control agonist peak)

CCCCCCCCC=O [nonanal]
GABAA % Direct Effect [2]: none
GABAA % Agonist Effect [2]: 219 ± 29%
GABAA Drug Response [2]: + (potentiation (+) for drug+agonist responses greater than the control agonist peak)
NMDA % Direct Effect [3]: none
NMDA % Agonist Effect [3]: 104 ± 2%
NMDA Drug Response [3]: 0 (no response (0) for drug+agonist responses that differ by <10% from the control agonist peak)

CCCCCCCC=O [octanal]
GABAA % Direct Effect [2]: 6 ± 3%
GABAA % Agonist Effect [2]: 357 ± 20%
GABAA Drug Response [2]: + (potentiation (+) for drug+agonist responses greater than the control agonist peak)
NMDA % Direct Effect [3]: none
NMDA % Agonist Effect [3]: 71 ± 3%

CCCCC [pentane]
GABAA % Direct Effect [2]: none
GABAA % Agonist Effect [2]: 321 ± 10%
GABAA Drug Response [2]: + (potentiation (+) for drug+agonist responses greater than the control agonist peak)
GABAA receptor modulation (in words) [2, 4]: positively modulate
NMDA % Direct Effect [3]: none
NMDA % Agonist Effect [3]: 94 ± 3%
NMDA Drug Response [3]: 0 (no response (0) for drug+agonist responses that differ by <10% from the control agonist peak)
NMDA receptor modulation (in words) [3, 4]: does not modulate NMDA receptors; also recorded: no effect

CCCCCCCCCCC=O [undecanal]
GABAA % Direct Effect [2]: none
GABAA % Agonist Effect [2]: 299 ± 29%
GABAA Drug Response [2]: + (potentiation (+) for drug+agonist responses greater than the control agonist peak)
NMDA % Direct Effect [3]: none
NMDA % Agonist Effect [3]: 97 ± 8%
NMDA Drug Response [3]: 0 (no response (0) for drug+agonist responses that differ by <10% from the control agonist peak)
